# From patent publication US10888549B2, “Pharmaceutical agents targeting cancer stem cells” (THE JOHNS HOPKINS UNIVERSITY, priority 2016, dated 2021)
# How the values were obtained:
# SOX2 = SOX2 expression by western blotting / flow cytometry; assay type: cell-based, human; conditions: basal-type cells
# Experimental: (§1) Whole cell lysates were extracted using RIPA buffer (Thermo Scientific) supplemented with 10 μL/mL Halt™ Protease Inhibitor Cocktail Kit (Life Technologies) and 30 μL/mL Halt™ Phosphatase Inhibitor Cocktail Kit (Life Technologies). The protein concentrations were determined using a Pierce™ BCA Protein Assay Kit (Life Technologies), and the protein were separated on NuPAGE® 4-12% Bis-Tris Gel (Life Technologies) according to the manufacturer's protocol. COX2 (D5H5), NANOG (D73G4), OCT4 (D7O5Z), CD133 (A3G6K), Snail (C15D3), ZEB1 (D80D3), Vimentin (D21H3), CDH2 (D4R1H), CDH1 (24E10), p-EGFR (D7A5), EGFR (D38B1), p-AKT (D9E), AKT (cat #, 9272), p-ERK (D13.14.4E), ERK (137F5), p-YAP1 (D9W2I), p-Src (cat #, 2101), Src (36D10), DNMT1 (D63A6), DNMT3A (D23G1), and DNMT3B (D7O7O) antibodies were obtained from Cell Signaling Technology (Danvers, Mass., USA), except for SOX2 (EPR3131; Abcam, Cambridge, USA), YAP1 (ab52771; Abcam), CD24 (cat #, AF5247-SP; R&D Systems, Minneapolis USA) and β-actin (A2228; Sigma-Aldrich). Secondary horseradish peroxidase (HRP)-conjugated antibodies were obtained from Cell Signaling Technology, and chemiluminescent detection of HRP-labeled antibodies was performed using Amersham ECL Prime Western Blotting Detection Reagent (GE Healthcare, Piscataway, USA). As loading control, β-actin was used.
# For extracellular staining, cells (1×10^6/100 μL stain buffer) were incubated with PE-Vio770-conjugated anti-human CD133 (293C3; Miltenyi Biotec, Auburn, USA) or PE-conjugated anti-human CD24 antibody (cat #, 560991; BD Biosciences) for 30 min at 4° C. in dark. PE-Vio770-conjugated Isotype (cat #, 130-098-563; Miltenyi Biotec) and PE-conjugated IgG2a, κ Isotype (cat #, 555574; BD Biosciences) were used as control for CD133 and CD24 staining, respectively. Staining for intracellular SOX2 was carried out using the BD Cytofix/Cytoperm Fixation/Permeabilization Kit (BD Biosciences) according to manufacturer's protocol. The cells were incubated with Alexa Fluor 647-conjugated anti-SOX2 antibody (cat #, 560302; BD Biosciences) for 40 min at 4° C. in dark. Alexa Fluor 647-conjugated anti-IgG2a, κ Isotype (cat #, 558053; BD Biosciences) was used as control. Data were acquired on a BD FACSCalibur flow cytometer (BD Biosciences) using BD CellQuest Pro software (BD Biosciences) and analyzed with FlowJo software v10.1 (Tree Star, Ashland, USA).
# COX2 = COX2 expression by western blotting; assay type: cell-based, human
# Experimental: (§2) Whole cell lysates were extracted using RIPA buffer (Thermo Scientific) supplemented with 10 μL/mL Halt™ Protease Inhibitor Cocktail Kit (Life Technologies) and 30 μL/mL Halt™ Phosphatase Inhibitor Cocktail Kit (Life Technologies). […] Secondary horseradish peroxidase (HRP)-conjugated antibodies were obtained from Cell Signaling Technology, and chemiluminescent detection of HRP-labeled antibodies was performed using Amersham ECL Prime Western Blotting Detection Reagent (GE Healthcare, Piscataway, USA). As loading control, β-actin was used.
# YAP1 = YAP1 expression by western blotting; assay type: cell-based, human
# Experimental: as §1
# urothelial CSCs = experiment: Sphere formation assay (CSC properties); assay type: cell-based, human; conditions: basal-type cells; 1 μM erlotinib for 72 hours
# Experimental: Sphere formation was induced by culturing cells (2×10^4/well) in DMEM/Ham's F12 50/50 Mix (Mediatech) supplemented with B-27 (Life Technologies), 20 ng/mL FGF-basic (Peprotech), 20 ng/mL EGF (Peprotech). Cell culture was performed in ultra-low attachment 6 well plates (Corning, Lowell, USA) for 10 days. The medium was replaced every other day. Sphere formation was evaluated using the inverted phase-contrast microscope, and single sphere with a diameter larger than 100 μm was counted using NIS-Elements Microscope Imaging Software. To redifferentiate spheres, spheres were plated in standard growth medium with 10% FBS in dishes supporting cell attachment, and incubated for 7 days. For self-renewal assay, primary spheres were collected by gentle centrifugation (5 min at 400×g), dissociated with Stempro Accutase Cell Dissociation Reagent (Life Technologies), and mechanically disrupted with a pipette. The cell suspension was sieved through 40 μm cell strainer cap filter to achieve a single-cell suspension, and then equal numbers of alive cells were plated in ultralow attachment plates to generate the second spheres. Again, spheres were counted on day 14 and digested to generate the third Spheres. All the experiments were performed in triplicate and repeated at least three times.
# [1] = test system: AKT and extracellular signal-related kinase (ERK); experiment: Western blotting of AKT and ERK activation; assay type: cell-based, human; conditions: basal-type cells; 1 μM erlotinib
# Experimental: as §1
# EGFR-MAPK signaling = experiment: Western blotting in xenograft tumors that acquired resistance to erlotinib; assay type: in vivo, mice; conditions: xenograft tumors with acquired resistance to EGFR inhibitor
# Experimental: as §2
# For celecoxib and/or VP treatment, celecoxib (5 mg/kg) was administered via intraperitoneal (i.p.) injection once a day (17), and VP (50 mg/kg) was administered via i.p. every other day (18). […] For GEM and CDDP (GC) treatment (i.p.), CDDP (6 mg/kg) was only applied after the first GEM (60 mg/kg) treatment on day 2, followed by three consecutive treatments of GEM on day 5, 8 and 11 (17). The next cycle was started on day 18, and the treatment was continued until tumor reached 2 cm in diameter. For erlotinib treatment, the mice were treated once a day, 6 days per week, by oral gavage with erlotinib (100 mg/kg) or control (PBS containing 0.5% methyl cellulose (Sigma-Aldrich) and 0.1% TWEEN 80) (20). Tumor size was measured at least every three days. […]
smiles,measurement,setting,value
"C#Cc1cccc(Nc2ncnc3cc(OCCOC)c(OCCOC)cc23)c1 [erlotinib, Erlotinib]",SOX2 expression,SOX2,decreased at 1 hour after treatment with erlotinib and then gradually increased
same,COX2 expression,COX2; basal-type cells,increased
same,COX2 expression,COX2; non-basal-type cells,did not affect
same,YAP1 expression,YAP1; basal-type cells,continuously decreased
same,YAP1 expression,YAP1; non-basal-type cells,did not affect
same,number of spheres,urothelial CSCs,enriched number of spheres
same,activation of AKT and extracellular signal-related kinase (ERK),[1],suppressed activation
same,EGFR-MAPK signaling,EGFR-MAPK signaling,remained suppressed
